In patent US11639348B2, “Compositions and methods for neuraminidase detection and quantification” (priority 2018, dated 2023):

System: A/Brisbane/59/2007 H1N1 Oseltamivir-Resistant NA
Type: biochemical, influenza A/Brisbane/59/2007 H1N1 Oseltamivir-Resistant
Conditions: pH 7.6

SMILES: CC(=O)NC1C(NC(=N)N)C(F)C(Oc2c(F)cc3c(C)cc(=O)oc3c2F)(C(=O)O)OC1[C@H](O)[C@H](O)CO (stereo partly drawn) [compound 3, 5-Acetamido-4-guanidine-3-fluoro-3,4,5-trideoxy-2α-(4-methyl-6,8-difluoromethylumbelliferyl)-D-glycero-D-galactononulopyranosylnoic acid]
- Km: 41.6 µM
- kcat: 35.7 s⁻¹
